Numbered stars: 1 amine (or outer) side, 2 acyl side, 3 side chain; on linkers, the order of the positions; unused ones are H or OH. Square brackets hold non-standard residues; d marks the D form. Side chains are listed from the residue outwards. Peptide text beside a SMILES is read from it. * marks the point of attachment. C20 diacid = O=C(O)CCCCCCCCCCCCCCCCCCC(=O)*; C18 diacid = O=C(O)CCCCCCCCCCCCCCCCC(=O)*; γGlu = O=C(O)[C@H](CCC(=O)[*:2])N[*:1]; αMeL = CC(C)C[C@](C)(N)C(=O)O; Orn = NCCC[C@H](N)C(=O)O; AEEA = NCCOCCOCC(=O)O; Aib = CC(C)(N)C(=O)O
Tests used:
[1] = target: T1, gastric inhibitory peptide receptor (GIPR) (Homo sapiens, UniProt P48546); experiment: cAMP pharmacological functional assay in presence of casein, hGIPR; assay type: cell-based; conditions: HEK293 cells expressing hGIPR, 0.1% Casein, geometric mean; read-out: hGIPR cAMP Rel EC50 nM (SEM, n)
T1 sequence (P48546 22-466): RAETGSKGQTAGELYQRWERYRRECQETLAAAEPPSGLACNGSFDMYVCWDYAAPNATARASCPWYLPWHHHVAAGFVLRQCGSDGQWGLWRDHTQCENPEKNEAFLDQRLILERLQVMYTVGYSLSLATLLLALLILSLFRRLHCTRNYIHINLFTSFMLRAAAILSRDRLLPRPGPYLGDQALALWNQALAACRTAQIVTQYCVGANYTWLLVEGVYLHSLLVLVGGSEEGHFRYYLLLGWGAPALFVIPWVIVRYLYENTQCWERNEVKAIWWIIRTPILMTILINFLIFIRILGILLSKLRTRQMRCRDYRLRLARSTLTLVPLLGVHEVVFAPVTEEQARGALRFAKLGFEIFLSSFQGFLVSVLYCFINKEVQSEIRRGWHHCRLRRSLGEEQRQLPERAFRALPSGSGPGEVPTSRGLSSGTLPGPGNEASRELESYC

human Gcg receptor = target: T2, human Gcg receptor (Homo sapiens, UniProt P47871); experiment: [125I]-Glucagon binding (SPA), human Gcg receptor; conditions: read-out: hGLcgR Ki, nM (SEM, n)
T2 construct: expressed in transfected cells; crude membranes
Outline: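 Scintillation counts are taken after membranes and WGA beads incubate and settle for 12 hours at room temperature. Buffer is 25 mM HEPES, pH 7.4, with CaCl2, MgCl2, bacitracin and Tween-20. Ki values, from four-parameter IC50 fits, are geometric means over independent days.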

human GIP receptor = target: T3, human GIP receptor (Homo sapiens, UniProt P48546); experiment: [125I]-GIP binding (SPA), human GIP receptor; conditions: read-out: hGIPR Ki, nM (SEM, n)
T3 construct: expressed in transfected cells; crude membranes
T3 sequence (P48546 22-466): T1 sequence (P48546 22-466)

human GLP-1R [2] = target: T4, human GLP-1R (Homo sapiens, UniProt P43220); experiment: GLP-1R CHO cell β-arrestin recruitment assay; assay type: cell-based; set-up: host or cells: CHO-K1 PathHunter cells, assay-ready frozen; conditions: for EC50: CHO-K1 cells; for hGLP1R B-Arrestin2 % Top: normalized to GLP-1 maximum control
Outline: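 Peptide-induced β-arrestin-2 recruitment measured by enzyme-fragment complementation luminescence after 90 min at 37 °C plus 60 min detection at RT.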

human GLP-1R [3] = target: T4, human GLP-1R; experiment: [125I]-GLP-1 binding (SPA), human GLP-1 receptor; set-up: expressed in transfected cells; crude membranes; conditions: read-out: hGLP1R Ki, (nM) (SEM, n)
Outline: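 Ki values are geometric means with SEM over independent replicates on different days, derived from IC50s fitted by four-parameter nonlinear regression. The assay used crude cell membranes in HEPES buffer, pH 7.4, containing CaCl2, MgCl2, bacitracin and TWEEN-20.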

human GLP-1R [4] = target: T4, human GLP-1R; experiment: GLP-1R HEK293 cell membrane [35S]GTPγS binding assay; assay type: biochemical; set-up: expressed in transfected cells; host or cells: HEK293 cells expressing human GLP-1R; membranes; conditions: HEK293 cell membranes expressing human GLP-1R, [35S]GTPγS binding; read-out: hGLP1R GTPgS Rel EC50 nM (SEM, n)
Outline: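 Agonist-driven Gαs activation read as [35S]GTPγS ([…]) binding to receptor-expressing HEK293 membranes, 30 min at room temperature, pH 7.4. Detection by anti-Gαs immunocapture on scintillation beads; EC50 derived from four-parameter logistic concentration-response fit.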

[5] = target: human GLP-1 receptor (GLP-1R) (Homo sapiens, UniProt P43220); experiment: cAMP pharmacological functional assay in presence of casein, hGLP-1R; assay type: cell-based; conditions: HEK293 cells expressing hGLP-1R, 0.1% Casein, geometric mean; read-out: hGLP1R cAMP Rel EC50 nM (SEM, n)
[6] = PathHunter β-arrestin-2 recruitment, 0.1% casein, read-out: hGLP1R B-Arrestin2 Rel EC50 uM (SEM, n)

T2 sequence (P47871 26-477): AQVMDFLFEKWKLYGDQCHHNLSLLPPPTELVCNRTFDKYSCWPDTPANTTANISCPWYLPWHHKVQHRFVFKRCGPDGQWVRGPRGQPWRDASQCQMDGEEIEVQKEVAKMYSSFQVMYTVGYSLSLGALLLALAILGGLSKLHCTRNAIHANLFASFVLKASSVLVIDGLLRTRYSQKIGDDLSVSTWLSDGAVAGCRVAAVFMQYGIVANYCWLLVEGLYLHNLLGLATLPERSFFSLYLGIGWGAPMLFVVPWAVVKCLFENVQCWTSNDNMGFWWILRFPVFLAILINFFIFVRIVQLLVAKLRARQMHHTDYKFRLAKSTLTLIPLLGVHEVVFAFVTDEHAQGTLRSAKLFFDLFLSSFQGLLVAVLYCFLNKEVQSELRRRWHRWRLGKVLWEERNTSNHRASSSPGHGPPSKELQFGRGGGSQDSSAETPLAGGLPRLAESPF
T4 sequence (P43220 24-463): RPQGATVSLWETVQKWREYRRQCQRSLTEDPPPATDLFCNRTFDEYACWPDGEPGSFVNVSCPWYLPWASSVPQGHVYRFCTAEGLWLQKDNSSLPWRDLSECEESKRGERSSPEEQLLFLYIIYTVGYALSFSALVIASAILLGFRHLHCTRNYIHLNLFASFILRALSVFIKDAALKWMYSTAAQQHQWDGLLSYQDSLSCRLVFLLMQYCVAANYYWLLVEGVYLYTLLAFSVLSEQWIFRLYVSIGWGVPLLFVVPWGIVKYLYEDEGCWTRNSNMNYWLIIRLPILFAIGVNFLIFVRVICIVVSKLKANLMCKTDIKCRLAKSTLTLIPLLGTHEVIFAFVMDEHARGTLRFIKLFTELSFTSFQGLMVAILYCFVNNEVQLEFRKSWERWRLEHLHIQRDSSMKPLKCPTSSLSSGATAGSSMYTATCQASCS
human GLP-1 receptor (GLP-1R), sequence (P43220 24-463): as above

Row | EC50 (human GLP-1R [2]; 0.1% w/v hydrolyzed Casein, read-out: hGLP1R B-Arrestin2 Rel EC50) [µM] | SMILES | EC50 [1] [nM] | Ki (human Gcg receptor) [nM] | Ki (human GIP receptor) [nM] | EC50 (human GLP-1R [2]; [6]) [µM] | hGLP1R B-Arrestin2 % Top (human GLP-1R [2]) [%] | Ki (human GLP-1R [3]) [nM] | EC50 (human GLP-1R [4]) [nM] | EC50 [5] [nM]
1 |  | CC[C@H](C)[C@H](NC(=O)[C@H](CC(C)C)NC(=O)[C@H](Cc1ccc(O)cc1)NC(=O)[C@H](CCC(=O)O)NC(=O)[C@@H](NC(=O)[C@H](Cc1ccccc1)NC(=O)[C@H](C)NC(=O)C(C)(C)NC(=O)[C@H](CCC(N)=O)NC(=O)[C@H](C)NC(=O)[C@H](CCCCNC(=O)COCCOCCNC(=O)COCCOCCNC(=O)CC[C@H](NC(=O)CCCCCCCCCCCCCCCCCCC(=O)O)C(=O)O)NC(=O)[C@H](CCCCN)NC(=O)[C@H](CC(=O)O)NC(=O)[C@H](CC(C)C)NC(=O)[C@](C)(CC(C)C)NC(=O)[C@@H](NC(=O)[C@H](CO)NC(=O)[C@H](Cc1ccc(O)cc1)NC(=O)[C@H](CC(=O)O)NC(=O)[C@H](CO)NC(=O)[C@@H](NC(=O)[C@H](Cc1ccccc1)NC(=O)[C@@H](NC(=O)CNC(=O)[C@H](CCC(=O)O)NC(=O)C(C)(C)NC(=O)[C@H](N)Cc1ccc(O)cc1)[C@@H](C)O)[C@@H](C)O)[C@@H](C)CC)[C@@H](C)CC)C(=O)N[C@@H](C)C(=O)NCC(=O)NCC(=O)N1CCC[C@H]1C(=O)N[C@@H](CO)C(=O)N[C@@H](CO)C(=O)NCC(=O)N[C@@H](C)C(=O)N1CCC[C@H]1C(=O)N1CCC[C@H]1C(=O)N1CCC[C@H]1C(=O)N[C@@H](CO)C(N)=O [Example 340] (H-[dY][Aib]EGTFTSDYSI[αMeL]LDKK([AEEA-AEEA-γGlu-C20 diacid])AQ[Aib]AFIEYLIAGGPSSGAPPPS-NH2) | 0.0823 | 250 | 0.0507 | 0.0107 | 20.1 | 2.08 | 0.45 | 0.252
2 |  | CC[C@H](C)[C@H](NC(=O)[C@H](CC(C)C)NC(=O)[C@H](Cc1ccc(O)cc1)NC(=O)[C@@H](CCC(=O)O)NC(=O)[C@@H](NC(=O)[C@H](Cc1ccccc1)NC(=O)[C@H](C)NC(=O)C(C)(C)NC(=O)[C@H](CCC(N)=O)NC(=O)[C@H](C)NC(=O)[C@H](CCCCNC(=O)COCCOCCNC(=O)COCCOCCNC(=O)CC[C@H](NC(=O)CCCCCCCCCCCCCCCCC(=O)O)C(=O)O)NC(=O)[C@H](CCCN)NC(=O)[C@H](CC(=O)O)NC(=O)[C@H](CC(C)C)NC(=O)[C@](C)(CC(C)C)NC(=O)[C@@H](NC(=O)[C@H](CO)NC(=O)[C@H](Cc1ccc(O)cc1)NC(=O)[C@H](CC(=O)O)NC(=O)[C@H](CO)NC(=O)[C@@H](NC(=O)[C@H](Cc1ccccc1)NC(=O)[C@@H](NC(=O)CNC(=O)[C@H](CCC(=O)O)NC(=O)C(C)(C)NC(=O)[C@H](N)Cc1ccc(O)cc1)[C@@H](C)O)[C@@H](C)O)[C@@H](C)CC)[C@@H](C)CC)C(=O)N[C@@H](C)C(=O)NCC(=O)NCC(=O)N1CCC[C@H]1C(=O)N[C@@H](CO)C(=O)N[C@@H](CO)C(=O)NCC(=O)N[C@@H](C)C(=O)N1CCC[C@H]1C(=O)N1CCC[C@H]1C(=O)N1CCC[C@H]1C(=O)N[C@@H](CO)C(N)=O [Example 363] (H-[dY][Aib]EGTFTSDYSI[αMeL]LD[Orn]K([AEEA-AEEA-γGlu-C18 diacid])AQ[Aib]AFI[dE]YLIAGGPSSGAPPPS-NH2) | 0.145 | > 1020 | 0.17 | 0.135 | 22.1 | 3.89 | 0.943 | 0.208
3 | > 12 | CC[C@H](C)[C@H](NC(=O)[C@H](CC(C)C)NC(=O)[C@H](Cc1ccc(O)cc1)NC(=O)[C@H](CCC(=O)O)NC(=O)[C@@H](NC(=O)[C@H](Cc1ccccc1)NC(=O)[C@H](C)NC(=O)C(C)(C)NC(=O)[C@H](CCC(N)=O)NC(=O)[C@H](C)NC(=O)[C@H](CCCCNC(=O)COCCOCCNC(=O)COCCOCCNC(=O)CC[C@H](NC(=O)CCCCCCCCCCCCCCCCC(=O)O)C(=O)O)NC(=O)[C@H](CCCCN)NC(=O)[C@H](CC(=O)O)NC(=O)[C@H](CC(C)C)NC(=O)[C@H](CC(C)C)NC(=O)[C@@H](NC(=O)[C@H](CO)NC(=O)[C@H](Cc1ccc(O)cc1)NC(=O)[C@H](CC(=O)O)NC(=O)[C@H](CO)NC(=O)[C@@H](NC(=O)[C@H](Cc1ccccc1)NC(=O)[C@@H](NC(=O)CNC(=O)[C@H](CCC(=O)O)NC(=O)C(C)(C)NC(=O)[C@@H](N)Cc1ccc(O)cc1)[C@@H](C)O)[C@@H](C)O)[C@@H](C)CC)[C@@H](C)CC)C(=O)N[C@@H](C)C(=O)NCC(=O)NCC(=O)N1CCC[C@H]1C(=O)N[C@@H](CO)C(=O)N[C@@H](CO)C(=O)NCC(N)=O [Example 272] (H-Y[Aib]EGTFTSDYSILLDKK([AEEA-AEEA-γGlu-C18 diacid])AQ[Aib]AFIEYLIAGGPSSG-NH2) | 0.0464 | 550 | 0.0353 | > 12 |  | 1.22 | 0.651 | 0.0435
4 |  | CC[C@H](C)[C@H](NC(=O)[C@H](CC(C)C)NC(=O)[C@H](Cc1ccc(O)cc1)NC(=O)[C@H](CCC(=O)O)NC(=O)[C@@H](NC(=O)[C@H](Cc1ccccc1)NC(=O)[C@H](C)NC(=O)C(C)(C)NC(=O)[C@H](CCC(N)=O)NC(=O)[C@H](C)NC(=O)[C@H](CCCCNC(=O)COCCOCCNC(=O)COCCOCCNC(=O)CC[C@H](NC(=O)CCCCCCCCCCCCCCCCCCC(=O)O)C(=O)O)NC(=O)[C@H](CCC(=O)O)NC(=O)[C@H](CC(=O)O)NC(=O)[C@H](CC(C)C)NC(=O)[C@](C)(CC(C)C)NC(=O)[C@@H](NC(=O)[C@H](CO)NC(=O)[C@H](Cc1ccc(O)cc1)NC(=O)[C@H](CC(=O)O)NC(=O)[C@H](CO)NC(=O)[C@@H](NC(=O)[C@H](Cc1ccccc1)NC(=O)[C@@H](NC(=O)CNC(=O)[C@H](CCC(=O)O)NC(=O)C(C)(C)NC(=O)[C@H](N)Cc1ccc(O)cc1)[C@@H](C)O)[C@@H](C)O)[C@@H](C)CC)[C@@H](C)CC)C(=O)N[C@@H](C)C(=O)NCC(=O)NCC(=O)N1CCC[C@H]1C(=O)N[C@@H](CO)C(=O)N[C@@H](CO)C(=O)NCC(=O)N[C@@H](C)C(=O)N1CCC[C@H]1C(=O)N1CCC[C@H]1C(=O)N1CCC[C@H]1C(=O)N[C@@H](CO)C(N)=O [Example 341] (H-[dY][Aib]EGTFTSDYSI[αMeL]LDEK([AEEA-AEEA-γGlu-C20 diacid])AQ[Aib]AFIEYLIAGGPSSGAPPPS-NH2; N-terminus assumed) | 0.238 | 39.7 | 0.0559 | 0.0188 | 21.9 | 6.49 | 0.496 | 0.373

Source: patent US12252524B2, “GIP/GLP1 co-agonist compounds” (Eli Lilly and Company, priority 2018, dated 2025)
